Results published in patent US10208071B2, “Use of agonists of formyl peptide receptor 2 for treating ocular inflammatory diseases” (Allergan, Inc., priority 2013, dated 2019).
Read-outs that look alike come from different tables or passages of the source. One block for each compound: values may come before it.

Molecular target: FPR2 (Homo sapiens (Human), UniProt P25090)
Experiment: FLIPR Ca+2 response, HEK-Gα16 cells stably expressing the human FPR2 receptor (Table 4)
Type: cell-based
Conditions: for FPR2 (efficacy): efficacy in parentheses
Protocol: FLIPR: HEK-Gα16 cells stably expressing the human FPR2 receptor was utilized. Cells were plated into 384-well poly-D-lysine coated plates at a density of 18,000 cells per well one day prior to use. The growth media was DMEM medium supplemented with 10% fetal bovine serum (FBS), 1% antibiotic-antimycotic, 50 μg/ml hygromycin, and 400 μg/ml geneticin. On the day of the experiment, the cells were washed twice with Hank's Balanced Salt Solution supplemented with 20 mM HEPES (HBSS/hepes buffer). The cells were then dye loaded with 2 μM Fluo-4 diluted in the HBSS/Hepes buffer and incubated at 37° C. for 40 minutes. Extracellular dye was removed by washing the cell plates four times prior to placing the plates in the FLIPR (Fluorometric Imaging Plate Reader, Molecular Devices). Ligands were diluted in HBSS/Hepes buffer and prepared in 384-well microplates. Data for Ca^+2 responses were obtained in relative fluorescence units.

Sequence of FPR2 (P25090 whole entry): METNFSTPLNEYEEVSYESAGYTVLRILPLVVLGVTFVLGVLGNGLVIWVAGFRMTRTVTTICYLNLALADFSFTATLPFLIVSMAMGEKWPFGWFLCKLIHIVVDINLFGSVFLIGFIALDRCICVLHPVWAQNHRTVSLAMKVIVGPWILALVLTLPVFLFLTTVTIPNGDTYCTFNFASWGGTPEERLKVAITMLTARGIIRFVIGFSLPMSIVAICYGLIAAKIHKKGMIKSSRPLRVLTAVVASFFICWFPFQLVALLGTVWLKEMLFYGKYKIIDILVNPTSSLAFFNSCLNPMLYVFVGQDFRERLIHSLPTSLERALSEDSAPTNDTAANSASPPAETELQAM

EC50: 4 nM
FPR2 (efficacy): nM (0.90)
Compound: O=C(O)[C@@H]1C2CCC([C@@H]1C(=O)Nc1ccc(Br)cc1)C21CC1 (relative stereo) [Compound 14, rel-(2R,3S)-3-[(4-bromophenyl)carbamoyl] spiro[bicyclo[2.2.1]heptane-7,1′-cyclopropane]-2-carboxylic acid]

FPR2 (efficacy): nM (0.93)
Compound: CC1(CCc2ccccc2)NC(=O)N(NC(=O)Nc2ccc(Br)cc2)C1=O (single isomer, unassigned; (+)) [Compound 57]

FPR2 (efficacy): nM (0.96)
Compound: CCC1(C(C)C)NC(=O)N(NC(=O)Nc2ccc(Br)cc2)C1=O (single isomer, unassigned; (+)) [Compound 66, (+)1-(4-bromophenyl)-3-[4-ethyl-2,5-dioxo-4-(propan-2-yl)imidazolidin-1-yl]urea]

FPR2 (efficacy): nM (0.91)
Compound: NC(=O)C1C(C(=O)Nc2ccc(Br)cc2)C2CCC1C21CC1 (single isomer, unassigned; (-)) [Compound 45, (−) N-(4-bromophenyl)spiro[bicyclo[2.2.1]heptane-7,1′-cyclopropane]-2,3-dicarboxamide]

FPR2 (efficacy): nM (1.0)
Compound: CCC1(C(C)C)NC(=O)N(NC(=O)Nc2ccc(Br)cc2)C1=O (single isomer, unassigned; (-)) [Compound 67, (−)1-(4-bromophenyl)-3-[4-ethyl-2,5-dioxo-4-(propan-2-yl)imidazolidin-1-yl]urea]

FPR2 (efficacy): μM (0.59)
Compound: CCC(C)[C@@H](NC(=O)Nc1ccc(Br)cc1)C(=O)O (stereo in doubt) [Compound 122, (2R,3R)-2-{[(4-bromophenyl)carbamoyl]amino}-3-methylpentanoic acid]

Second part, the compound before the results:

Compound: CCC1(CCc2ccccc2)NC(=O)N(NC(=O)Nc2ccc(Br)cc2)C1=O (stereo not drawn) [Compound 1, 1-(4-bromophenyl)-3-[4-ethyl-2,5-dioxo-4-(2-phenylethyl)imidazolidin-1-yl]urea]
FPR2 (efficacy): (0.96)
EC50 (unit inferred): 3 nM

Compound: CCC[C@H](NC(=O)Nc1ccc(Br)cc1)C(=O)NCC(=O)O [Compound 2, {[(2S)-2-{[(4-bromophenyl)carbamoyl]amino}pentanoyl]amino}acetic acid]
FPR2 (efficacy): (0.91)
EC50 (unit inferred): 2 nM

Compound: CCC1(C(C)C)NC(=O)N(NC(=O)Nc2ccc(Br)cc2)C1=O (stereo not drawn) [Compound 4, 1-(4-bromophenyl)-3-[4-ethyl-2,5-dioxo-4-(propan-2-yl)imidazolidin-1-yl]urea]
FPR2 (efficacy): (0.90)

Compound: CC[C@H](C)[C@H](NC(=O)Nc1ccc(Br)cc1F)C(=O)O [Compound 5, (2S,3S)-2-{[(4-bromo-2-fluorophenyl)carbamoyl]amino}-3-methylpentanoic acid]
FPR2 (efficacy): (0.96)
EC50 (unit inferred): 31 nM

Compound: CC(C)C[C@H](NC(=O)Nc1ccc(Br)cc1)C(=O)NC(C)(C)C(=O)O [Compound 6, 2-{[(2S)-2-{[(4-bromophenyl)carbamoyl]amino}-4-methylpentanoyl]amino}-2-methylpropanoic acid]
FPR2 (efficacy): (0.91)
EC50 (unit inferred): 1.66 nM

Compound: CC(C)C[C@H](NC(=O)Nc1ccc(Br)cc1F)C(=O)NCC(=O)O [Compound 7, {[(2S)-2-{[(4-bromo-2-fluorophenyl)carbamoyl]amino}-4-methylpentanoyl]amino}acetic acid]
FPR2 (efficacy): (1.0)
EC50 (unit inferred): 3.57 nM

Compound: CC(C)C[C@H](NC(=O)Nc1ccc(Br)cc1)C(=O)NCC(=O)O [Compound 8, {[(2S)-2-{[(4-bromophenyl)carbamoyl]amino}-4-methylpentanoyl]amino}acetic acid]
FPR2 (efficacy): (0.78)

Compound: CC(C)C[C@H](NC(=O)Nc1ccc(Br)cc1)C(=O)O [Compound 9, (2S)-2-{[(4-bromophenyl)carbamoyl]amino}-4-methylpentanoic acid]
FPR2 (efficacy): (0.77)
EC50 (unit inferred): 5.95 nM
